US9695178B2, “6-(2-pyridyl)-7,8-dihydro-5H-pyrido[4,3-D]pyrimidine analogs as hedgehog pathway signaling inhibitors and therapeutic applications thereof” (Suzhou Yunxuan Yiyao Keji Youxian Gongsi, priority 2013, dated 2017)

Target: Smo (Homo sapiens, UniProt Q99835)
Assay: Bodipy-Cyclopamine Binding Assay (confirmation assay), Hek293-SMO cells

Smo, sequence (Q99835 28-787): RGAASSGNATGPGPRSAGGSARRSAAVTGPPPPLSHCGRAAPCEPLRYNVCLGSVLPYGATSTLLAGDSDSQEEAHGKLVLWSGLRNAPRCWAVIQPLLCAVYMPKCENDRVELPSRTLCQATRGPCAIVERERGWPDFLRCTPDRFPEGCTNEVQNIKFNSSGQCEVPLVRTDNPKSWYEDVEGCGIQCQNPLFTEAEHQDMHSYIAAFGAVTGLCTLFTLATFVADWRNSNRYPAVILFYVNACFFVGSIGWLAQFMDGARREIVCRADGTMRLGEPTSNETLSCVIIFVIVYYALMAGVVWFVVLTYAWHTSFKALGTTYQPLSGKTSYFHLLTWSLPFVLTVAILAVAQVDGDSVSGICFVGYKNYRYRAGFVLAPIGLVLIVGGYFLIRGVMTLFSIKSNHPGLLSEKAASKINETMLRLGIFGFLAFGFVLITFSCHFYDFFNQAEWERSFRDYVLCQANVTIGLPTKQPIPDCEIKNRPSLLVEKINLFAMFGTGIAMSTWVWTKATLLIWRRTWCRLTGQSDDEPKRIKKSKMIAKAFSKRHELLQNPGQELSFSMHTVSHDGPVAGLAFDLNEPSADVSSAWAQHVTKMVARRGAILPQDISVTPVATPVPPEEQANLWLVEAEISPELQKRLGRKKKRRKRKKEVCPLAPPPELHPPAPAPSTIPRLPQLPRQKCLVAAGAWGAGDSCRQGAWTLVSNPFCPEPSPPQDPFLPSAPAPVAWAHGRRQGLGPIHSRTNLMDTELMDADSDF

| SMILES | IC50 [nM] | Kd (read-out: Kd of bodipy-cyclopamine for WT-Smo, used in the Cheng-Prusoff equation) [nM] |
| --- | --- | --- |
| Clc1cnc(N2CCc3nc(NC4CC4)ncc3C2)cc1-c1cnccn1 [Compound A-116, 6-(5-chloro-4-(pyrazin-2-yl)pyridin-2-yl)-N-cyclopropyl-5,6,7,8-tetrahydropyrido[4,3-d]pyrimidin-2-amine] | 235 | – |
| Clc1cnc(N2CCc3nc(NC4CC4)ncc3C2)cc1-c1nccs1 [Compound A-117, 6-(5-chloro-4-(thiazol-2-yl)pyridin-2-yl)-N-cyclopropyl-5,6,7,8-tetrahydropyrido[4,3-d]pyrimidin-2-amine] | 169 | – |
| Clc1cnc(N2CCc3nc(NC4CC4)ncc3C2)cc1-c1cccnc1 [Compound A-118, 6-(5′-chloro-3,4′-bipyridin-2′-yl)-N-cyclopropyl-5,6,7,8-tetrahydro-pyrido-[4,3-d]pyrimidin-2-amine] | > 1000 | – |
| CC1=C2CC3C(CC=C4C[C@@H](O)CCC43C)C2CCC12O[C@@H]1CC(C)CN(CCNC(=O)CCCCCNC(=O)CCC3=[N+]4C(=Cc5c(C)cc(C)n5[B-]4(F)F)C=C3)C1C2C (stereo partly shown) [bodipy-cyclopamine, reference compound] | – | 3.5 ± 0.8 |
